In a melting point compilation (Tetko et al.; mined from patent text by program, amines drawn as free bases though some values may be those of a salt):

Point of comparison: NC(=O)c1coc(-c2ccc(Oc3ccc(F)cc3)cc2)n1, melting point 164 °C. Against it:
- CS(=O)(=O)c1ccc(C2=C(c3ccc(F)cc3)C(=O)C2(Cl)Cl)cc1 — lower, 116 to 118 °C
- CCOC(=O)c1cnn2c1N(C(=O)CCl)CC=C2c1cccc(C(F)(F)F)c1 — lower, 141 to 142 °C
- CC(CCC(O)C(C)(C)O)C1CCC2C3CCC4CC(O)CCC4(C)C3CCC12C (stereo not given) — lower, 152 to 154 °C
- O=C(NC12CC3CC(CC(C3)C1)C2)c1cccc2c1OCCO2 — lower, 137 °C
- CNC(=O)c1c(-c2ccccc2)oc(-c2ccccc2)cc1=O — higher, 196 to 197 °C
- COc1ccc(NC(=O)OCC2(C(C)=O)CC3C=CC2C3)cc1C (stereo not given) — lower, 121 to 122 °C
- CCOC(Cc1ccc(NCCc2ccc(OS(C)(=O)=O)cc2)cc1)C(=O)O (stereo not given) — lower, 130 to 134 °C
- O=C1C2CCCCC2C(=O)N1c1c(F)cc(F)cc1F (stereo not given) — lower, 129 to 131 °C
- CC(=O)Nc1ccc(N)c2c1C(=O)C(O)(c1ccc(C(C)C)cc1O)C2=O (stereo not given) — higher, 278 to 280 °C
- COc1cn2nc(OCCCN3CCN(C(c4ccccc4)c4ccccc4)CC3)ccc2n1 — lower, 144 to 146 °C
- CC1(C)CN=C(NCC2CCCc3ccc(S(=O)(=O)c4ccccc4)cc32)NC1 (stereo not given) — lower, 140 to 145 °C
- COc1cccc(C(=O)C(=NN)c2cccc(OC)c2)c1 — lower, 109 to 110 °C
- O=C(Cc1c[nH]c2ccccc12)N1CCN(C(=O)c2cc(C(F)(F)F)cc(C(F)(F)F)c2)[C@H](Cc2ccccc2)C1 — higher, 201 to 210 °C
- CCc1nc2c(N)nc3ccccc3c2n1CCCCS(=O)(=O)c1ncccn1 — higher, 172 to 175 °C
- CNC(=O)Nc1ccc(Cc2cc(C)c(C(=O)c3ccc(Cl)cc3)n2C)nc1 — higher, 234 to 236 °C
- CCCc1ccc(-c2nnc(SC)nn2)cc1 — lower, 78 to 79 °C
- Cc1noc(C2CC2)c1I — lower, 71 °C
- Cn1nc(OC2=CC(CF)(CF)Oc3ccc(C(F)(F)C(F)(F)F)cc32)ccc1=O — lower, 150 to 152 °C
- c1csc(C2NCCc3ccccc32)c1 (stereo not given) — lower, 114 to 116 °C
- NS(=O)(=O)c1ccccc1C1CCOC1=O (stereo not given) — lower, 141 to 146 °C
- CCc1nc2cc(C(F)(F)F)c(Cl)cc2n1-c1ccc(C[C@H](C)NC(=O)NS(=O)(=O)c2ccc(C)cc2)cc1 — lower, 138 to 141 °C
- Cc1c(Cc2cccc(C(F)(F)F)c2)sc2c(-c3cc(C(=O)O)ccn3)cccc12 — higher, 271 to 272 °C
- CC(=O)SCCC(=O)N(C)c1nnc(-c2cccnc2)s1 — lower, 133 to 135 °C
- CCOc1cc2ncc(C#N)c(Nc3ccc(OCc4ccccc4)c(Cl)c3)c2cc1NC(=O)CC(CN1CCCC1)N1CCCC1 (stereo not given) — lower, 85 to 87 °C
- COc1ccccc1[C@H](c1cccc2ccccc12)[C@@](C)(C#N)C(=O)N1CCN(c2ccccc2Cl)CC1 — lower, 145 to 147 °C
- CS(=O)(=O)c1nc(Cl)cc(Nc2ccc(C(F)(F)F)cc2)n1 — higher, 184 to 186 °C
- Cc1ccc(S(=O)(=O)OC[C@H](O)c2ccc(OCc3ccccc3)cc2)cc1 — lower, 91 to 92 °C
- O=c1ccn(-c2ccc(OC(F)F)cc2)nc1-c1ccnn1-c1ccccc1 — higher, 175 to 176 °C
- COCOc1c(-c2cccc(C=CC(=O)O)c2)ccc2c1C(C)(C)CCC2(C)C — higher, 188 to 189 °C
- CC(=O)c1nc2cc(Cl)c(OCC(F)(F)F)cc2cc1O — lower, 104 to 105 °C
- COC(=O)c1scc(Cl)c1NC(C)=O — lower, 142 to 147 °C
- O=C1c2ccccc2-c2c1c1ccccc1c(=O)n2CCCCCCNS(=O)(=O)c1ccccc1 — lower, 150 to 152 °C
- COc1cccc([C@H]2O[C@H](CC(=O)NCc3ccoc3C(=O)O)C(=O)N(CC(C)(C)CO)c3ccc(Cl)cc32)c1OC — lower, 125 to 128 °C
- Cc1nnc(-c2ccccc2F)n2nc(OCc3ncnn3C)c(-c3ccccc3)c12 — lower, 159 to 162 °C
- CSC1=C(c2ccc(O)cc2)C(=O)c2cc(O)ccc21 — lower, 90 to 92 °C
- Cc1cccc(COc2cccc(OCc3cccc(Cl)n3)c2)c1C(=O)O — lower, 97 to 98 °C
- CC(=O)c1cccc(Oc2ncccc2C(=O)NCc2ccc([C@H](C)O)cc2)c1 — lower, 102 to 104 °C
- CC(C)(C)OC(=O)Nc1ccc(-c2ccoc2)cc1[N+](=O)[O-] — lower, 105 to 110 °C
- CS(=O)(=O)Nc1cc2oc(O)cc(=O)c2cc1Oc1ccccc1 — higher, > 250 °C
- CCn1cc(-c2cccc(C(F)(F)F)c2)c(=O)n1-c1ccccc1 — lower, 156 to 157 °C
- CN1C(=O)CN(C2=CC(C)(C)Oc3ccc(C#N)cc32)C1=O — higher, 188 to 190 °C
- O=C(Nc1cccc2cc(CBr)cnc12)c1c(Cl)cccc1Cl — higher, 223 to 224 °C
- CC1(C)OC(=O)Nc2ccc(-c3ccc(S(N)(=O)=O)s3)cc21 — higher, 258 to 260 °C
- Cc1ccc(C)n1-c1cc2c(cc1C(F)(F)F)[nH]c(=O)c(=O)n2CC(=O)NCc1ccccc1 — higher, > 250 °C
- COc1cc2c(-c3cc4cc(F)cnc4[nH]3)cn(CCN3CCOCC3)c2cc1OC — higher, 205 to 210 °C
- CCN(CC)C(=O)c1ccc(C(c2ccccc2)C2CCNCC2)cc1 (stereo not given) — lower, 160 to 162 °C
- CNC(=O)C1(Cl)CC1(Cl)Cl (stereo not given) — lower, 71 to 72 °C
- COc1ccc(OC2COc3ccc(OCc4cc(OC)ccn4)cc3C2O)cc1 (stereo not given) — lower, 80 to 82 °C
- CC(C)=CCNc1ncnc2c1nc(N)n2C1OC(CO)C(O)C1O (stereo not given) — lower, 121 to 124 °C
- Cc1ccc(N2CCN(Cc3ccc4c(c3)NCCN4)CC2)cc1C — lower, 148 to 149 °C
- Cc1ccc(C(=S)CCCCCC#N)cc1 — lower, 49.5 to 51 °C
- Cc1c(O)ccc2c(=O)cc(N3CCOCC3)oc12 — higher, > 250 °C
- C[C@@H](N(CC(=O)O)C(=O)c1ccc(C(F)(F)F)cc1)[C@](O)(Cn1cncn1)c1ccc(F)cc1F — lower, 132 to 135 °C
- CNc1cc(NC)nc(NC)n1 — higher, 215 °C
- CCCCCCC1C(=O)OC2OC3(C)CCC4C(C)CCC1C24OO3 (single isomer, unassigned; (+)) — lower, 80.5 to 82 °C
- Cc1cc(C2=C(C=CC3CC(O)CC(=O)O3)C(C)(C)CC(O)C2)ccc1F (stereo not given) — lower, 77 to 79 °C
- CC(C)Oc1ccc(-c2cccs2)cc1C=O — higher, 186 to 187 °C
- CCCCn1cc(C(=O)C(=O)O)c2cc(-c3cccc(OC)c3)ccc21 — lower, 108 to 109 °C
- Cc1nc(C)c(Cl)c(NCc2ccc(Oc3ccc4ncc([N+](=O)[O-])n4n3)c(Cl)n2)n1 — higher, 184 to 186 °C
- CC=Nc1cc(CO)cc(Nc2c3ccccc3nc3ccccc23)c1 — lower, 158 to 161 °C
- COC(=O)c1cc(S(=O)(=O)c2ccc(C)cc2)cc(OC)c1OC — lower, 114 °C
- CC1CN(Cc2ccccc2)CC1=NO (stereo not given) — lower, 85 to 94 °C
- O=C1CCC(N2Cc3c(OCc4ccc5ccccc5c4)cccc3C2=O)C(=O)N1 (stereo not given) — higher, 277 to 279 °C
- OCc1cn(-c2cccc(Cl)c2)cn1 — lower, 78 to 79 °C
- CCOC1=C(C#N)S(=O)(=O)N=C1N — higher, 236 to 238 °C
- COc1ccc(C(=O)Nc2ccncc2)c2c3ccccc3n(Cc3ccc(F)cc3)c12 — higher, 230 to 232 °C
- Fc1ccccc1C1=NCc2c(N3CCCC3)ncn2-c2ccc(Cl)cc21 — lower, 114 to 118 °C
- O=c1[nH][nH]c(C(F)(F)F)c1Cc1ccc2nccnc2c1 — higher, 266 to 268 °C
- CCOC(=O)/C=C/c1ccc(OCCOC)cc1OS(=O)(=O)C(F)(F)F — lower, 37.1 to 37.3 °C
